Like-named read-outs stand apart in the source and are kept apart here.
Experiments:
opioid κ receptor [1] = target: T1, opioid κ receptor (Cavia porcellus, UniProt P41144); settings: for selectivity ratio κ/δ: ratio of binding Ki values; for Ki: read-out: Ki (nM) ± SEM κ, displacement of [3H]U69,593 (1.2-[…]), guinea pig brain membranes
mice = assay: 55° C. tail-flick antinociception test in mice; settings: for naloxone sensitivity: naloxone 10 mg/kg ip, -10 min, yes = greater than 80% reduction in the antinociceptive effect
Experimental: Analgesic Testing and Assessment of Tolerance Development. The analgesic activity of selected ligands is tested in mice using the 55° C. tail-flick test as previously described. (See Wells et al., supra.) The test compounds are administered by the intracerbroventricular (icv) route. […] To determine whether the analgesic activity of the tested compounds is mediated through opioid receptors, the blockade of antinociceptive activity by pretreatment with naloxone is carried out. The analgesic activity was considered as naloxone sensitive if greater than 80% reduction in the antinociceptive response is observed.
Antinociceptive Studies. Male ICR mice (Harlan) are used for all evaluations. Mice are housed in a temperature and humidity controlled vivarium on a 12:12 h light:dark cycle with unlimited access to food and water prior to the formal procedures. […] The dihydrochloride salt of 7h is dissolved in water and injected in a volume of 5 μL. All other compounds are dissolved in 100% DMSO and injected in a volume of 5 μL. Antinociceptive assays are performed at various times after injection.
Percent antinociception is calculated using the formula: % MPE (maximal possible effect)=100×(test−control)/(cutoff−control) where control is the predrug observation, test is the postdrug observation, and cutoff is the maximal length of stimulus allowed (10 s for 55° C. tail-flick). Antinociceptive A50 values and 95% confidence intervals are determined using linear regression software (FlashCalc). Opioid activity of the test compounds are assessed by pretreating animals with naloxone (10 mg/kg ip, −10 min) followed by an icv injection of an approximate A90 dose of test compound. […] Antinociception is assessed in the 55° C. tail-flick test at 10, 20 and 30 min. A positive response to a fixed dose of naloxone is indicated when greater than 80% reduction in the antinociceptive effect of the agonist is observed.

opioid δ receptor = target: T2, opioid δ receptor (Rattus norvegicus, UniProt P33533); assay: Opioid δ receptor binding, [3H]DADLE displacement in rat brain membranes
T2 construct: Rat membranes are prepared each day using a partially thawed frozen rat brain; from tissue; host or cells: rat brain membranes
T2 sequence (P33533 whole entry): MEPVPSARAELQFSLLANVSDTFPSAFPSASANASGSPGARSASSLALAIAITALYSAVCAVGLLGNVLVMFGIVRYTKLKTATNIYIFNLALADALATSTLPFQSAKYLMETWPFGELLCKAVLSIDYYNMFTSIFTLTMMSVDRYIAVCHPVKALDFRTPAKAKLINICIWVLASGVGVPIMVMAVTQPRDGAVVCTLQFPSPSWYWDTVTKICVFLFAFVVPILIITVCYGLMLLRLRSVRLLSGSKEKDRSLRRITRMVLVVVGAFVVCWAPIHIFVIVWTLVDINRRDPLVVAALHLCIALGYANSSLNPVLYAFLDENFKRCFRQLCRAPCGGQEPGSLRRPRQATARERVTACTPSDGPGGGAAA

μ receptor [2] = target: T3, μ receptor (Cavia porcellus, UniProt A0ACM8Q262); settings: read-out: antagonist activity apparent Ki (nM ± SD) μ; inhibition of DAMGO (10 μM) stimulated [35S]GTP-γ-S binding
T3 sequence (A0ACM8Q262 1-400): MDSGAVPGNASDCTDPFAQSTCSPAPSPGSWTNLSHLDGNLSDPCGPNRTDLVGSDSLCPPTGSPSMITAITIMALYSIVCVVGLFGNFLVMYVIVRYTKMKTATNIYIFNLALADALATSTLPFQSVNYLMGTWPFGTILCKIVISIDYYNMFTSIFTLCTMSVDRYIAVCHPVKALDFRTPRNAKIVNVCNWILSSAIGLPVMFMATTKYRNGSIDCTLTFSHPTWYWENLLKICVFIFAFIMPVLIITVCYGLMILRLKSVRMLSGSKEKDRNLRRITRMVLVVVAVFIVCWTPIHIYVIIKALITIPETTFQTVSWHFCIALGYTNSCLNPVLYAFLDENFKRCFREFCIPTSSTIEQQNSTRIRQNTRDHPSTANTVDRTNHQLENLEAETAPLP

opioid μ receptor [3] = target: T4, opioid μ receptor (Rattus norvegicus, UniProt P33535); settings: for selectivity ratio μ/δ: ratio of binding Ki values; for Ki: read-out: Ki (nM) ± SEM μ, displacement of [3H]DAMGO (1.4-3.0 nM), rat brain membranes
T4 sequence (P33535 whole entry): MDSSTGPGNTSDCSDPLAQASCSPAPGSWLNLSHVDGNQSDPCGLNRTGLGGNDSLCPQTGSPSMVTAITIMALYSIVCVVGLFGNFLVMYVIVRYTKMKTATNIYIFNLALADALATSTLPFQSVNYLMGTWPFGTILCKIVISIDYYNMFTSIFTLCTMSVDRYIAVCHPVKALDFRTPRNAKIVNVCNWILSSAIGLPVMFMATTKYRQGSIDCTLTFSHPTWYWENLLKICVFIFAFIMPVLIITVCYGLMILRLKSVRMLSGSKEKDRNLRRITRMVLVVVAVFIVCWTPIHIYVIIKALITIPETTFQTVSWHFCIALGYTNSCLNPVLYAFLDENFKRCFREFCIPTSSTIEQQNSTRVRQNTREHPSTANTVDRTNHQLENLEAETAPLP

δ receptor [4] = target: T5, δ receptor (Cavia porcellus, UniProt A0A286XTF2); assay: biochemical
T5 sequence (A0A286XTF2 1-366): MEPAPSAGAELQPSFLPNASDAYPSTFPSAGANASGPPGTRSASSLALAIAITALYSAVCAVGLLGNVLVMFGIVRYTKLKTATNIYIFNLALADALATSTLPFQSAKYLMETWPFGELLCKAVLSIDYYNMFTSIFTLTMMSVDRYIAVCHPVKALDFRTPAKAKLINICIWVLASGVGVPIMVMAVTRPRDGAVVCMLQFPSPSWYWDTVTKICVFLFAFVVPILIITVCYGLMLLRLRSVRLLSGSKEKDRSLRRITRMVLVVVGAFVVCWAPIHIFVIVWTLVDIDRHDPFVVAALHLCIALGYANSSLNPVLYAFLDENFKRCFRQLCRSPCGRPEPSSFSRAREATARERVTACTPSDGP

κ receptor [5] = target: T6, κ receptor (Cavia porcellus, UniProt P41144); assay: biochemical
T6 sequence (P41144 whole entry): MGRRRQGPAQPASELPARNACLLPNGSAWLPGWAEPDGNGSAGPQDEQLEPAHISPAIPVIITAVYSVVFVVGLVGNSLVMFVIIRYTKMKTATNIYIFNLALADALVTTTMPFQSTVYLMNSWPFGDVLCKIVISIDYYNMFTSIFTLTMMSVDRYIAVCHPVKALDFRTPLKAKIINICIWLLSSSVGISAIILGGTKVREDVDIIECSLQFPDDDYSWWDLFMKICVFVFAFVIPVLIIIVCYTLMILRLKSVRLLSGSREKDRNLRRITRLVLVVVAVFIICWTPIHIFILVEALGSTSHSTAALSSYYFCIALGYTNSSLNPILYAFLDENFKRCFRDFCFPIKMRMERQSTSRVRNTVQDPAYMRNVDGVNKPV

[6] = target: T7, δ receptor (mouse vas deferens) (Mus musculus, UniProt P32300); assay: Mouse vas deferens (MVD) smooth muscle bioassay; parameters: from tissue; host or cells: mouse vas deferens (male ICR mice)
T7 sequence (P32300 whole entry): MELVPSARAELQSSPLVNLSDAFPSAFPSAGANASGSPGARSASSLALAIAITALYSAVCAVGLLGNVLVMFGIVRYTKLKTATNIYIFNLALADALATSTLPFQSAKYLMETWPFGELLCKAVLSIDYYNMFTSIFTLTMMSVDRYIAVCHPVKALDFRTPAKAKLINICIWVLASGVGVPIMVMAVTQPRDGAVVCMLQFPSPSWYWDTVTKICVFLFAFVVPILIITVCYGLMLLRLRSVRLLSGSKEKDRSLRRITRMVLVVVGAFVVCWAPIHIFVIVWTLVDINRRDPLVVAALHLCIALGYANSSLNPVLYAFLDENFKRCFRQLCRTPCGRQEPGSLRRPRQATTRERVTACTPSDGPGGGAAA
Experimental: (§1) Bioassays in Smooth Muscle Preparations. The functional activity profiles of selected ligands are also determined in the mouse vas deferens (MVD) and guinea pig ileum (GPI) smooth muscle preparations as described previously.
(§2) The agonist activity is determined by the ability of the compound to inhibit electrically stimulated contractions of the GPI and MVD. The GPI is primarily a μ receptor preparation, even though the ileum does also contain κ receptors. In the MVD, the opioid effects are predominantly mediated through δ receptors, but μ and κ receptors also exist in this tissue.
(§3) Tissues came from male ICR mice weighing 25-40 g and male Hartley guinea pigs weighing 250-500 g. The tissues are tied to gold chain with suture silk, suspended in 20 mL baths containing 37° C. oxygenated (95% O2, 5% CO2) Krebs bicarbonate solution (magnesium free for the MVD), and allowed to equilibrate for 15 min. The tissues are then stretched to optimal length previously determined to be 1 g tension (0.5 g for MVD) and allowed to equilibrate for 15 min. The tissues are stimulated transmurally between platinum wire electrodes at 0.1 Hz, 0.4 ms pulses (2-ms pulses for MVD), and supramaximal voltage. […] Tissues not producing typical results are not used. Experimental compounds were added to the baths in 14-60 μL volumes. Succeeding doses of agonist are added cumulatively to the bath at 3 min intervals to produce a concentration-response curve. The tissues are then washed extensively with fresh buffer until the original contraction height is reestablished. […] The tissues are then washed with fresh buffer for 30 min, and the agonist dose-response curve was repeated. Rightward shifts in the dose-response curves are calculated by dividing the antagonized dose-response curve IC50 value by the unantagonized IC50 value. IC50 values represent the mean of two to four tissues. IC50 estimates and their associated standard errors are determined by using a computerized nonlinear least-squares method. (MINSQ Least Squares Parameter Estimation, version 3.05; MicroMath Inc., 1999.)

opioid κ receptor [7] = target: T1, opioid κ receptor; assay: biochemical
opioid μ receptor [8] = target: T4, opioid μ receptor; assay: biochemical
[9] = target: T7, δ receptor (mouse vas deferens); parameters: from tissue; host or cells: mouse vas deferens (male ICR mice); settings: DPDPE as agonist; data from Ananthan et al. (I); cited from earlier work
opioid κ receptor [10] = target: T1, opioid κ receptor; settings: data from Ananthan et al. (I); cited from earlier work
[11] = target: μ receptor (guinea pig ileum) (Cavia porcellus, UniProt A0ACM8Q262); settings: data from Ananthan et al. (I), cited from earlier work
μ receptor (guinea pig ileum), sequence (A0ACM8Q262 1-400): as the sequence (A0ACM8Q262 1-400) above

opioid μ receptor [12] = target: T4, opioid μ receptor; settings: data from Ananthan et al. (I); cited from earlier work
[13] = target: T7, δ receptor (mouse vas deferens); settings: percentage inhibition of contraction at 1 μM; data from Ananthan et al. (I); cited from earlier work
[14] = target: T7, δ receptor (mouse vas deferens); assay: Mouse vas deferens (MVD) smooth muscle bioassay; settings: inhibition of electrically stimulated contractions; read-out: agonist activity MVD (δ) IC50
Experimental: as §1, §2, §3

δ receptor [15] = target: T5, δ receptor; settings: δ receptors, partial inhibition with increasing concentrations
μ receptor [16] = target: T3, μ receptor; assay: biochemical; settings: read-out: agonist activity Emax % μ
κ receptor [17] = target: T6, κ receptor
[18] = displacement of [3H]DADLE (1.3-2.0 nM), rat brain membranes, 100 nM DAMGO to block μ sites, read-out: Ki (nM) ± SEM δ

T1 sequence (P41144 whole entry): as the sequence (P41144 whole entry) above

SMILES	melting point [°C]	selectivity ratio κ/δ (opioid κ receptor [1])	Ki (opioid κ receptor [1]) [nM]	factor that prevented determining the A50 value (mice; icv, mouse tail-flick)	naloxone sensitivity (mice)	Ki (opioid δ receptor) [nM]	Ki (μ receptor [2]) [nM]	selectivity ratio μ/δ (opioid μ receptor [3])	Ki (opioid μ receptor [3]) [nM]	Ki (opioid κ receptor [7]) [nM]	Ki (opioid μ receptor [8]) [nM]	Ki (opioid δ receptor; [18]) [nM]	IC50 (δ receptor [4]) [nM]	maximum percentage inhibition of SNC-80 stimulated [35S]GTP-γ-S binding (δ receptor [15]) [%]	Emax (μ receptor [16]) [%]	further results
CN1CC[C@]23c4c5ccc(O)c4O[C@H]2c2ncc(-c4ccc(Cl)cc4)cc2C[C@@]3(O)[C@H]1C5 [7d, 5′-(4-Chlorophenyl)-6,7-didehydro-3,14-dihydroxy-4,5α-epoxy-17-methylpyrido[2′,3′:6,7]morphinan]	196 to 198	118	468 ± 17	lack of potency	partial	3.96 ± 0.23	> 1000	58	230 ± 10	–	–	–	–	–	–	% nociception @ 300 nmol (mice; icv, mouse tail-flick): 43% @ 300 nmol; Ki (δ receptor [4]): 17 nM; Ki (κ receptor [5]): 767 ± 54 nM; Kb [6]: 38.2 ± 14.7 nM; antagonist activity MVD (δ) Ke ([6]; DPDPE as agonist, 1 μM compound, 30 min preincubation): 38 nM
Oc1ccc2c3c1O[C@H]1c4[nH]c5ccccc5c4C[C@@]4(O)C(C2)N(CC2CC2)CC[C@]314 [1, NTI, reference compound]	–	–	–	–	–	–	3.21 ± 0.2	–	–	–	–	–	–	–	–	Ki (κ receptor [5]): 8.85 ± 0.8 nM
COc1ccc2c3c1OC1c4ncc(-c5ccc(Br)cc5)cc4CC4(O)C(C2)N(C)CCC314 (stereo not drawn) [7p, 5′-(4-bromophenyl)-6,7-didehydro-4,5α-epoxy-14-hydroxy-3-methoxy-17-methyl-pyrido[2′,3′:6,7]morphinan]	> 230	320	–	–	–	23 ± 1.3	–	82	–	7370 ± 522	1890 ± 72	–	–	–	–	–
Oc1ccc2c3c1OC1c4ncccc4CC4(O)C(C2)N(CC2CC2)CCC314 (centres unmarked) [2a]	–	–	–	–	–	–	–	–	–	–	–	–	–	–	–	antagonist activity MVD (δ) Ke [9]: 37.0 ± 1.0 nM; selectivity ratio κ/δ (opioid κ receptor [10]): 11; antagonist activity GPI (μ) Ke ([11]; PL-017 as agonist): 190 ± 65 nM; agonist activity GPI (μ) % max resp ([11]; percentage inhibition of contraction at 1 μM): 0%; selectivity ratio μ/δ (opioid μ receptor [12]): 1.9; agonist activity MVD (δ) % max resp [13]: 0%
CN1CC[C@]23c4c5ccc(O)c4O[C@H]2c2ncc(-c4ccccc4)cc2C[C@@]3(O)[C@H]1C5 [7c, 6,7-Didehydro-3,14-dihydroxy-4,5α-epoxy-17-methyl-5′-phenylpyrido[2′,3′:6,7]morphinan]	190 to 192	124	360 ± 17	lack of efficacy	no	–	> 1000	9	26 ± 0.96	–	–	2.9 ± 0.12	920	61±3	27	% nociception @ 100 nmol (mice; icv, 100 nmol, mouse tail-flick): 64% @ 100 nmol; IC50 [14]: 213 ± 55.8 nM
CN1CC[C@]23c4c5ccc(O)c4O[C@H]2c2ncc(-c4ccc(Cl)c(Cl)c4)cc2C[C@H]3[C@H]1C5 [7j, 5′-(3,4-Dichlorophenyl)-6,7-didehydro-4,5α-epoxy-3-hydroxy-17-methylpyrido[2′,3′:6,7]morphinan]	184 to 186	75	278 ± 7	lack of efficacy	–	–	> 1000	25	93 ± 4	–	–	3.7 ± 0.14	74	58±3	63 ± 3	% nociception @ 300 nmol (mice; icv, mouse tail-flick): 44% @ 300 nmol; IC50 [14]: 489 ± 164 nM; maximum inhibition at the κ receptors (κ receptor [17]): 66±6%; IC50 (κ receptor [5]): 4770 nM
CN1CC[C@]23c4c5ccc(O)c4O[C@H]2c2ncc(-c4ccc(Br)cc4)cc2C[C@H]3[C@H]1C5 [7i, 5′-(4-Bromophenyl)-6,7-didehydro-4,5α-epoxy-3-hydroxy-17-methylpyrido[2′,3′:6,7]morphinan]	186 to 188	18	91 ± 6	–	yes	–	> 1000	40	200 ± 11	–	–	5 ± 0.6	55	69±3	59 ± 3	A50 (mice; icv, mouse tail-flick, at time of peak drug effect): 47.2 nmol; Ki (κ receptor [17]; read-out: antagonist activity apparent Ki (nM ± SD) κ): 265 ± 29 nM; Kb [6]: 20 ± 6.59 nM
CN1CCC23c4c5ccc(O)c4OC2c2ncc(-c4ccc(Br)cc4)cc2CC3(O)C1C5 (stereo not drawn) [7e, 5′-(4-Bromophenyl)-6,7-didehydro-3,14-dihydroxy-4,5α-epoxy-17-methylpyrido[2′,3′:6,7]morphinan]	196 to 198	108	–	–	–	4 ± 0.3	–	49	–	432 ± 18	196 ± 4	–	–	–	–	–
COc1ccc2c3c1OC1c4ncc(-c5ccccc5)cc4CC4(O)C(C2)N(C)CCC314 (stereo not drawn) [7n, 6,7-didehydro-4,5α-epoxy-14-hydroxy-3-methoxy-17-methyl-5′-phenylpyrido[2′,3′:6,7]-morphinan]	> 250	>294	–	–	–	34 ± 0.63	–	26	–	> 10000	894 ± 19	–	–	–	–	–
